Experimental data from patent publication US5936120A, “Deoxygossylic compounds” (University of New Mexico, priority 1997, dated 1999).
“Also recorded” adds a separate entry of the source.

Key:
[1] = tested on: H9/HIV-IIIB in HT46c cells; assay: Anti-HIV assay in vitro: inhibition of HIV replication, focal immunoassay (reduction in foci); format: cell-based, HIV-1; details: for anti-HIV activity: in words, tested at 0.01, 0.1, 1.0, 5.0 and 20 μM; for reduction in foci at 5 μM: GIL compared with BDGA
Protocol: 1,1'-bisdeoxygossypol (BDG), 1,1'-bisdeoxygossylic acid (BDGA), 8-deoxyhemigossypol (DHG) and 8-deoxyhemigossylic acid (DHGA) were synthesized and tested for their ability to inhibit the replication of HIV in vitro. The EC50 for BDGA was <1 μM and its threshold cytotoxicity was approximately 20 μM. […] Like BDGA, the Ec50 for GIL was <1 μM. […] BDG, on the other hand, was ineffective at 1 μM and destroyed >80% of the cell monolayer at 5 μM.
(§1) The anti-HIV assay used was based on a published procedure (J.Virol. 62:3779-3788, 1988) using HT46c (HeLaT4+) cells as host cells for the H9/HIV-III8 strain of the HIV-1 virus. The cells were seeded into 6-well plates, 5×10^4 cells/well, in RPMI 1640 with 10% FBS and allowed to attach overnight. After treatment of the wells with DEAE-dextran, stock virus was added at a concentration that produces 100 -200 foci/well on day 3 in positive control wells. Test compounds were added, and plates incubated for 3 days at 37° C., 5% CO2. Monolayers were fixed with methanol and wells analyzed with a focal immunoassay (FIA). The primary reagent used in the FIA was a polyclonal antibody preparation of sera from AIDS patients. The secondary reagent was a goat anti-human IgG antibody tagged with horseradish peroxidase. The substrate was 3-amino-9-ethylcarbazole in sodium acetate buffer with hydrogen peroxide. Each compound was tested at concentrations of 0.01, 0.1, 1.0, 5.0 and 20 μM. GIL was tested as a standard for comparison.

HT46c (HeLaT4+) cells = assay: Cytotoxicity in the anti-HIV assay: detectable changes in cell morphology or loss of monolayer adherence to the culture plate; format: cell-based; details: for cytotoxicity: in words
Protocol: (§2) 1,1'-bisdeoxygossypol (BDG), 1,1'-bisdeoxygossylic acid (BDGA), 8-deoxyhemigossypol (DHG) and 8-deoxyhemigossylic acid (DHGA) were synthesized and tested for their ability to inhibit the replication of HIV in vitro.
as §1, with “After” for “The anti-HIV assay used was based on a published procedure (J.Virol. 62:3779-3788, 1988) using HT46c (HeLaT4+) cells as host cells for the H9/HIV-III8 strain of the HIV-1 virus. The cells were seeded into 6-well plates, 5×10^4 cells/well, in RPMI 1640 with 10% FBS and allowed to attach overnight. After”

[2] = as above; format: cell-based; details: human, ht46c cells; below threshold = no detectable changes in cell morphology or loss of monolayer adherence
Protocol: as §2
as §1, with “After” for “The anti-HIV assay used was based on a published procedure (J.Virol. 62:3779-3788, 1988) using HT46c (HeLaT4+) cells as host cells for the H9/HIV-III8 strain of the HIV-1 virus. The cells were seeded into 6-well plates, 5×10^4 cells/well, in RPMI 1640 with 10% FBS and allowed to attach overnight. After”

HIV = details: previously found, in vitro; cited from earlier work
[3] = previously shown in similar assays (Pharmacol.Res.); cited from earlier work

Compound | anti-HIV activity [1] | cytotoxicity (HT46c (HeLaT4+) cells) | reduction in foci at 5 μM [1] | toxicity at 5.0 μM (HT46c (HeLaT4+) cells) | also measured
Cc1cc2c(C(C)C)c(O)c(O)c(C=O)c2cc1-c1cc2c(C=O)c(O)c(O)c(C(C)C)c2cc1C [BDG, 6,6',7,7'-Tetrahydroxy-3,3'-dimethyl-5,5'-bis(1-methylethyl)[2,2'-binaphthalene]-8,8'-dicarboxaldehyde] | less effective against HIV | much more cytotoxic than BDGA |  |  | anti-HIV activity at 1 μM ([1]; 1 μM): ineffective; destruction of the cell monolayer at 5 μM (HT46c (HeLaT4+) cells; 5 μM): > 80%
Cc1cc2c(C(C)C)c(O)c(O)c(C(=O)O)c2cc1-c1cc2c(C(=O)O)c(O)c(O)c(C(C)C)c2cc1C [BDGA, 6,6',7,7'-Tetrahydroxy-3,3'-dimethyl-5,5'-bis(1-methylethyl)[2,2'-binaphthalene]-8,8'-dicarboxylic Acid] | approximately as effective as GIL |  | same reduction in foci | No toxicity was noted | monolayer destruction at 20 μM (HT46c (HeLaT4+) cells; 20 μM): Some signs of monolayer destruction
Cc1ccc2c(C=O)c(O)c(O)c(C(C)C)c2c1 [DHG, 2,3-dihydroxy-6-methyl-4-(1-methylethyl)-1-naphthaldehyde] | some anti-HIV activity; also recorded: less active | more cytotoxic |  |  | MCC [2]: 54 µM
Cc1ccc2c(C(=O)O)c(O)c(O)c(C(C)C)c2c1 [DHGA, 2,3-dihydroxy-6-methyl-4-(1-methylethyl)-1-naphthoic Acid] | ineffective against HIV | very low cytotoxicity |  |  | effect on viral replication at 20 μM ([1]; even at 20 μM): no observable effect on viral replication; effect on cell morphology at 20 μM (HT46c (HeLaT4+) cells; even at 20 μM): no observable effect on viral replication or cell morphology
Cc1cc2c(C(C)C)c(O)c(O)c3c2c(c1-c1c(C)cc2c(C(C)C)c(O)c(O)c4c2c1OC4=N)OC3=N [GIL, gossylic iminolactone] |  |  | same reduction in foci | No toxicity was noted | anti-HIV activity relative to gossypol (HIV): more active; also recorded: more effective than gossypol; cytotoxicity relative to gossypol [3]: less cytotoxic than gossypol
